In patent publication US9233978B2, “6-fused heteroaryldihydropyrimidines for the treatment and prophylaxis of hepatitis B virus infection” (Hoffmann-La Roche Inc., priority 2014, dated 2016) one finds EC50 data, which are given here for 24 molecules.

As usually defined, the EC50 is the midpoint of the concentration-response curve.

This test has as its system HBV. The test is described as follows: Anti-HBV activity in vitro, HepG2.2.15 cells, extracellular HBV DNA by qPCR. Type of test: cell-based. The conditions noted are these: Hepatitis B virus, HepG2.2.15, 120 h, HepG2.2.15 cells; HBV replication inhibited by 50%, extracellular HBV DNA by qPCR; five days after compound treatment; read-out: EC50. The source says:
HepG2.2.15 and HepDE19 are stably-transfected cell lines containing the HBV genome. Both cell lines are derived from the hepatoblastoma cell line Hep G2 (American Type Culture Collection, ATCC® HB-8065™) by the published procedures described in references: MA Selles et al. Proc. Natl. Acad. Sci. USA 1987, 84, 1005-1009 and H Guo et al. Journal of Virology 2007, 81, 12472-12484, respectively. Both cell lines were maintained in Dulbecco's modified Eagle's medium (DMEM)-F12 medium supplemented with 10% fetal bovine serum, 100 U/mL penicillin, 100 μg/mL streptomycin, and 0.5 mg/mL of G418.
While HepG2.2.15 cells constitutively support HBV replication and production of virus particles, HepDE19 cells are inducible by tetracycline. Addition of 1 μg/mL tetracycline in culture medium suppresses HBV replication in HepDE19 cells, whereas switching to tetracycline-free medium resumes this process.
HepG2.2.15 cells were seeded into 96-well plates (3×10^4 cells in 100 μL media per well) and incubated overnight at 37° C. The test compounds were serially half-log diluted in DMSO, then diluted 100 times in culture media. 100 μL of diluted compounds were added into the plates to reach 0.5% final concentration of DMSO in every well. Five days after compound treatment, culture supernatant was collected for further analysis.
For quantitative PCR detection of extracellular HBV DNA, 100 μL of culture supernatant was collected and processed in MagNA Pure 96 Nucleic Acid Purification System (Roche Applied Science) for viral DNA extraction. The extracted samples were subjected to HBV DNA quantification by qPCR.
(In general: Quantitative PCR measures a nucleic acid by following its amplification.)
On to `CCOC(=O)C1=C(CN2CCN3C(=O)N([C@H](C)CC(=O)O)C[C@@H]3C2)NC(c2nccs2)=N[C@H]1c1cccc(F)c1Cl` [Example 57, (R)-6-[(S)-2-((R)-2-Carboxy-1-methyl-ethyl)-3-oxo-hexahydro-imidazo[1,5-a]pyrazin-7-ylmethyl]-4-(2-chloro-3-fluoro-phenyl)-2-thiazol-2-yl-1,4-dihydro-pyrimidine-5-carboxylic acid ethyl ester], for which the half-maximal effective concentration (EC50) worked out at 32 nM.

For `CCOC(=O)C1=C(CN2CCN3C(=O)N(CC4CC4)C[C@H]3[C@@H]2C(=O)O)NC(c2nccs2)=N[C@H]1c1cccc(F)c1Cl` (single isomer, unassigned) [Example 97A], the EC50 was found to be 37 nM.

With `COC(=O)C1=C(CN2CCN3C(=O)N([C@H]4C[C@@H](C(=O)O)C4)CC3C2)NC(c2nccs2)=N[C@H]1c1ccc(F)cc1Cl` (stereo in doubt) [Example 40, 3-[(8aR)-7-[[(4R)-4-(2-chloro-4-fluoro-phenyl)-5-methoxycarbonyl-2-thiazol-2-yl-1,4-dihydropyrimidin-6-yl]methyl]-3-oxo-5,6,8,8a-tetrahydro-1H-imidazo[1,5-a]pyrazin-2-yl]cyclobutanecarboxylic acid], the EC50 is 34 nM.

Consider `COC(=O)C1=C(CN2CCN3C(=O)N(CC(C)(C)C(=O)O)C[C@@H]3C2)NC(c2nccs2)=NC1c1ccc(Cl)cc1` (mixture of isomers) [Example 77, 3-[(8aS)-7-[[4-(4-chlorophenyl)-5-methoxycarbonyl-2-thiazol-2-yl-1,4-dihydropyrimidin-6-yl]methyl]-3-oxo-5,6,8,8a-tetrahydro-1H-imidazo[1,5-a]pyrazin-2-yl]-2,2-dimethyl-propanoic acid], for which the EC50 is 146 nM.

Take `CCOC(=O)C1=C(CN2CCN3C(=O)N(CC(C)(C)O)C[C@H]3C2)NC(c2nccs2)=N[C@H]1c1cccc(F)c1Cl` (single isomer, unassigned) [Example 106A]: the EC50 came out at 32 nM.

For the molecule `COC(=O)C1=C(CN2CCN3C(=O)COCC3C2)NC(c2nccs2)=N[C@H]1c1ccc(F)cc1Cl` (stereo partly drawn) [Example 2, Methyl (4R)-4-(2-chloro-4-fluoro-phenyl)-6-[(4-oxo-6,7,9,9a-tetrahydro-1H-pyrazino[2,1-c][1,4]oxazin-8-yl)methyl]-2-thiazol-2-yl-1,4-dihydropyrimidine-5-carboxylate], the EC50 was found to be 54 nM.

Consider `COC(=O)C1=C(CN2CCN3[C@@H](CNS3(=O)=O)C2)NC(c2nccs2)=N[C@H]1c1ccc(F)cc1Cl` [Example 18, Methyl (4R)-6-[[(3aR)-1,1-dioxo-2,3,3a,4,6,7-hexahydro-[1,2,5]thiadiazolo[2,3-a]pyrazin-5-yl]methyl]-4-(2-chloro-4-fluoro-phenyl)-2-thiazol-2-yl-1,4-dihydropyrimidine-5-carboxylate], for which the EC50 amounted to 108 nM.

For `COC(=O)C1=C(CN2CCN3C(=O)N([C@H]4CCC[C@@H]4C(=O)O)C[C@@H]3C2)NC(c2nccs2)=N[C@H]1c1ccc(F)cc1Cl` [Example 52, (1S,2S)-2-[(8aS)-7-[[(4R)-4-(2-chloro-4-fluoro-phenyl)-5-methoxycarbonyl-2-thiazol-2-yl-1,4-dihydropyrimidin-6-yl]methyl]-3-oxo-5,6,8,8a-tetrahydro-1H-imidazo[1,5-a]pyrazin-2-yl]cyclopentanecarboxylic acid], the EC50 is 30 nM.

Take `CCOC(=O)C1=C(CN2CCN3C(=O)N(C(C)(C)C(=O)OC)CC3C2)NC(c2nccs2)=N[C@H]1c1cccc(F)c1Cl` (stereo partly drawn) [Example 23, Ethyl (4R)-4-(2-chloro-3-fluoro-phenyl)-6-[[2-(2-methoxy-1,1-dimethyl-2-oxo-ethyl)-3-oxo-5,6,8,8a-tetrahydro-1H-imidazo[1,5-a]pyrazin-7-yl]methyl]-2-thiazol-2-yl-1,4-dihydropyrimidine-5-carboxylate]: the EC50 came out at 3 nM.

Regarding `COC(=O)C1=C(CN2CCN3[C@H](CNS3(=O)=O)C2)NC(c2nccs2)=N[C@H]1c1ccc(F)cc1Cl` [Example 17, Methyl (4R)-6-[[(3aS)-1,1-dioxo-2,3,3a,4,6,7-hexahydro-[1,2,5]thiadiazolo[2,3-a]pyrazin-5-yl]methyl]-4-(2-chloro-4-fluoro-phenyl)-2-thiazol-2-yl-1,4-dihydropyrimidine-5-carboxylate], the EC50 turned out to be 39 nM.

Take `CCOC(=O)C1=C(CN2CCN3C(=O)N(C(C)(C)C)C[C@H]3[C@@H]2CO)NC(c2nccs2)=N[C@H]1c1cccc(F)c1Cl` (single isomer, unassigned) [Example 103A]: the EC50 stood at 140 nM.

For the molecule `CCOC(=O)C1=C(CN2CCN3C(=O)N(C(C)C)C[C@H]3C2)NC(c2nccs2)=N[C@H]1c1cccc(F)c1Cl` (single isomer, unassigned) [Example 104A], the EC50 worked out at 131 nM.

Take `CCOC(=O)C1=C(CN2CCN3C(=O)N(CC(F)(F)C(=O)O)C[C@@H]3C2)NC(c2nccs2)=N[C@H]1c1ccc(F)c(F)c1C` [Example 96, (S)-6-[(S)-2-(2-Carboxy-2,2-difluoro-ethyl)-3-oxo-hexahydro-imidazo[1,5-a]pyrazin-7-ylmethyl]-4-(3,4-difluoro-2-methyl-phenyl)-2-thiazol-2-yl-1,4-dihydro-pyrimidine-5-carboxylic acid ethyl ester]: the EC50 came out at 150 nM.

For the molecule `COC(=O)C1=C(CN2CCN3C(=O)NC(=O)[C@H]3C2)NC(c2nccs2)=N[C@H]1c1ccc(F)cc1Cl` [Example 15, Methyl (4R)-6-[[(8aR)-1,3-dioxo-5,6,8,8a-tetrahydroimidazo[1,5-a]pyrazin-7-yl]methyl]-4-(2-chloro-4-fluoro-phenyl)-2-thiazol-2-yl-1,4-dihydropyrimidine-5-carboxylate], the EC50 worked out at 110 nM.

Regarding `COC(=O)C1=C(CN2CCN3C(=O)NC[C@H]3C2)NC(c2nccs2)=N[C@H]1c1ccc(F)cc1Cl` [Example 12, Methyl (4R)-6-[[(8aS)-3-oxo-1,2,5,6,8,8a-hexahydroimidazo[1,5-a]pyrazin-7-yl]methyl]-4-(2-chloro-4-fluoro-phenyl)-2-thiazol-2-yl-1,4-dihydropyrimidine-5-carboxylate], the EC50 is 149 nM.

Regarding `COC(=O)C1=C(CN2CCN3C(=O)CC[C@@H]3C2)NC(c2nccs2)=N[C@H]1c1ccc(F)cc1Br` [Example 7, Methyl (4R)-6-[[(8aR)-6-oxo-1,3,4,7,8,8a-hexahydropyrrolo[1,2-a]pyrazin-2-yl]methyl]-4-(2-bromo-4-fluoro-phenyl)-2-thiazol-2-yl-1,4-dihydropyrimidine-5-carboxylate], the EC50 amounted to 14 nM.

With `COC(=O)C1=C(CN2CCN3C(=O)CC[C@H]3C2)NC(c2nccs2)=N[C@H]1c1ccc(F)cc1Cl` [Example 5, Methyl (4R)-6-[[(8aS)-6-oxo-1,3,4,7,8,8a-hexahydropyrrolo[1,2-a]pyrazin-2-yl]methyl]-4-(2-chloro-4-fluoro-phenyl)-2-thiazol-2-yl-1,4-dihydropyrimidine-5-carboxylate], the EC50 stood at 159 nM.

For `CCOC(=O)C1=C(CN2CCN3C(=O)N(C(C)(C)C)C[C@@H]3[C@H]2C(=O)OC)NC(c2nccs2)=N[C@H]1c1cccc(F)c1Cl` (single isomer, unassigned) [Compound 87B-1], the concentration giving a half-maximal response (EC50) worked out at 4 nM.

Regarding `CCOC(=O)C1=C(CN2CCN3C(=O)OC[C@H]3[C@@H]2C(=O)O)NC(c2nccs2)=N[C@H]1c1cccc(F)c1Cl` (single isomer, unassigned) [Example 102A], the EC50 was 147 nM.

As to `COC(=O)C1=C(CN2CCN3C(=O)CC[C@@H]3C2)NC(c2nccs2)=N[C@H]1c1ccc(F)cc1Cl` [Example 6, Methyl (4R)-6-[[(8aR)-6-oxo-1,3,4,7,8,8a-hexahydropyrrolo[1,2-a]pyrazin-2-yl]methyl]-4-(2-chloro-4-fluoro-phenyl)-2-thiazol-2-yl-1,4-dihydropyrimidine-5-carboxylate], the EC50 was found to be 14 nM.

Take `CCOC(=O)C1=C(CN2CCN3C(=O)N(C(C)(C)C)C[C@@H]3[C@H]2CO)NC(c2nccs2)=N[C@H]1c1cccc(F)c1Cl` (single isomer, unassigned) [Example 103B]: the 50% effective concentration (EC50) was determined as 10 nM.

Consider `COC(=O)C1=C(CN2CCN3C(=O)N(CCCC(C)(C)CO)CC3C2)NC(c2nccs2)=N[C@H]1c1ccc(F)cc1Cl` (stereo partly drawn) [Example 69, Methyl (4R)-4-(2-chloro-4-fluoro-phenyl)-6-[[2-(5-hydroxy-4,4-dimethyl-pentyl)-3-oxo-5,6,8,8a-tetrahydro-1H-imidazo[1,5-a]pyrazin-7-yl]methyl]-2-thiazol-2-yl-1,4-dihydropyrimidine-5-carboxylate], for which the EC50 is 13 nM.

For `CCOC(=O)C1=C(CN2CCN3C(=O)N(C(C)(C)C)C[C@H]3[C@@H]2C(=O)O)NC(c2nccs2)=N[C@H]1c1cccc(F)c1Cl` (single isomer, unassigned) [Example 87A], the EC50 turned out to be 62 nM.

Turning to `CCOC(=O)C1=C(CN2CCN3C(=O)N(C)C[C@@H]3[C@H]2C(=O)O)NC(c2nccs2)=N[C@H]1c1cccc(F)c1Cl` (single isomer, unassigned) [Example 91A], the EC50 is 150 nM.
